Test results from patent publication US20240018132A1, “5-HYDROXY-1,4-NAPHTHALENEDIONE FOR USE IN THE TREATMENT OF CANCER” (GODAVARI BIOREFINERIES LIMITED, priority 2020, published 2024).

Legend:
MDAMB231 [1] = assay: In vitro antiproliferative assay (MTT assay), breast cancer cell line; type: cell-based; conditions: Homo sapiens, MDA-MB-231, 48 h, MTT assay, breast cancer MDAMB231, 48 hrs drug incubation
Procedure: (§1) MTT assay is a simple and sensitive assay where, metabolic reducing activity of the cells is measured. The increase of this activity in time is taken as a parameter of cell growth. If treatment with a drug impairs this increase, the action is a consequence of growth inhibition, cell killing or both. […] All cell lines were cultured in a 37° C. incubator with a 5% CO2 environment. Compounds were dissolved in DMSO with a concentration of 0.1M (stock solution). Cells were seeded into 96-well plates at suitable plating efficiency.
(§2) Following plating efficiencies were standardized for MTT assay:
(§3) In the MTT procedure, the cells were plated in 96 well plates as per predetermined plating efficiency (Table1). The plates were then incubated for 24 hrs in 5% CO2 atmosphere at 37° C. Appropriate concentrations of the drugs were then added to the plate and further incubation was carried out for 48 hrs (in 5% CO2 atmosphere at 37° C.). The assay plate was then centrifuged twice at 3000 rpm for 3 mins and supernatant was then discarded. 100 ul of MTT solution (0.5 mg/ml) was then added to each well of the plate and it was further incubated for 4 hrs (in 5% CO2 atmosphere at 37° C.) Following 4 hr incubation, the plate was then centrifuged twice, and supernatant was aspirated off very carefully. 200 ul of DMSO was then added to each well to solubilize. MTT crystals and mixed well by shaking the plate. XY graph of log percent viability was then plotted against log drug concentration.

PC3 [2] = assay: In vitro antiproliferative assay (MTT assay), prostate cancer cell line; type: cell-based; conditions: Homo sapiens, PC-3, 48 h, MTT assay, prostate cancer PC3, 48 hrs drug incubation
Procedure: as §1, §2, §3

Human lymphocytes = assay: Lymphocyte assay (MTT on normal cells); type: cell-based; conditions: Lymphocyte; human peripheral blood lymphocytes, MTT procedure
Procedure: Human lymphocytes were isolated from the peripheral blood. A pure population of lymphocytes was obtained based on differential centrifugation, in which diluted defibrinated blood was layered on a solution of sodium diatrizoate and polysucrose (HiSep LSM 1077) and centrifuged at low speeds for 30 mins.
Procedure: The separation of lymphocytes from fresh defibrinated blood was performed by the procedure described below: • 1. Diluted defibrinated fresh blood was overlaid gradually on (HiSeP LSM1077) and centrifuged at low speed for 30 mins. • 2. The lymphocyte layer (the buffy coat) was carefully removed in a new collection tube. • 3. The buffy coat was given another wash, by the diluent buffer Dulbecco's phosphate buffered saline (D.P.B.S) • 4. The supernatant was discarded and the pellet was resuspended in D.P.B.S. • 5. The viability of cells was checked by Haemocytometer. • 6. Cells with purity and viability of more than 95% were taken for the experiment. • 7. Purified lymphocytes were diluted at a concentration of 0.7 million/ml with sterile D.P.B.S and MTT procedure was performed exactly as described earlier.

MDAMB231 [3] = assay: In vitro sphere-forming assay (cancer stem cells), Mammosphere media; conditions: for 3D sphere count of MDAMB231: Mammosphere media, 2000 cells/well, n = 6 ± S.D
PC3 [4] = assay: In vitro sphere-forming assay (cancer stem cells), Prostosphere media; conditions: for 3D sphere count of PC3: Prostosphere media, 2000 cells/well, n = 6 ± S.D
[5] = Homo sapiens, MDA-MB-231, read-out: % Viability of spheres (MDAMB231)
[6] = Homo sapiens, PC-3, read-out: % Viability of spheres (PC3)

SMILES | IC50 (MDAMB231 [1]) | IC50 (PC3 [2]) | viability at 0.0025 µM (MDAMB231 [3]; [5]) | viability at 0.025 µM (MDAMB231 [3]; [5]) | viability at 0.25 µM (MDAMB231 [3]; [5]) | viability at 2.5 µM (MDAMB231 [3]; [5]) | viability at 25 µM (MDAMB231 [3]; [5]) | 3D sphere count of MDAMB231 (MDAMB231 [3]; drug 0.0025 uM) | 3D sphere count of MDAMB231 (MDAMB231 [3]; drug 0.025 uM) | 3D sphere count of MDAMB231 (MDAMB231 [3]; drug 0.25 uM) | 3D sphere count of MDAMB231 (MDAMB231 [3]; drug 2.5 uM) | 3D sphere count of MDAMB231 (MDAMB231 [3]; drug 25 uM) | viability at 0.025 µM (PC3 [4]; [6]) | viability at 0.25 µM (PC3 [4]; [6]) | viability at 2.5 µM (PC3 [4]; [6]) | viability at 25 µM (PC3 [4]; [6]) | 3D sphere count of PC3 (PC3 [4]; drug 0.025 uM) | 3D sphere count of PC3 (PC3 [4]; drug 0.25 uM) | 3D sphere count of PC3 (PC3 [4]; drug 2.5 uM) | 3D sphere count of PC3 (PC3 [4]; drug 25 uM) | other results
O=C(O)CCCOc1cccc2c1C(=O)C=C(Nc1ccc3c(c1)OCO3)C2=O [Formula 70] | 3020 nM | 2230 nM | 86% | 74% | 62% | 41% | 24% | 71(±3) | 61(±3) | 51(±3) | 34(±3) | 20(±2) | 67% | 50% | 41% | 31% | 55(±2) | 41(±3) | 34(±4) | 25(±3) | IC50 (Human lymphocytes): 5410 nM; viability at 0.0025 µM (PC3 [4]; [6]): 95%; 3D sphere count of PC3 (PC3 [4]; drug 0.0025 uM): 78(±2)
O=C1C(Oc2ccc3c(c2)OCO3)=CC(=O)c2c(OCCN3CCOCC3)cccc21 [Formula 46, 5-(2-morpholinoethoxy)-2-(benzo[d][1,3]dioxol-5-yloxy)naphthalene-1,4-dione] | 1370 nM | 1350 nM | 74% | 60% | 49% | 32% | 20% | 67(±5) | 54(±4) | 44(±4) | 29(±3) | 18(±3) | 67% | 51% | 36% | 22% | 54(±4) | 41(±3) | 29(±3) | 18(±3) | viability at 0.0025 µM (PC3 [4]; [6]): 82%; 3D sphere count of PC3 (PC3 [4]; drug 0.0025 uM): 66(±3)
COc1ccc(OC2=CC(=O)c3c(OCCCN4CCOCC4)cccc3C2=O)cc1 [Formula 77] | 2220 nM | 269 nM | 82% | 70% | 53% | 40% | 30% | 74(±4) | 63(±5) | 48(±3) | 36(±4) | 27(±3) | 68% | 51% | 36% | 26% | 55(±3) | 41(±3) | 29(±6) | 21(±3) | viability at 0.0025 µM (PC3 [4]; [6]): 80%; 3D sphere count of PC3 (PC3 [4]; drug 0.0025 uM): 64(±3)
O=C1C(Oc2ccc3c(c2)OCO3)=CC(=O)c2c(OCCCCN3CCOCC3)cccc21 [Formula 47, 5-(4-morpholinobutoxy)-2-(benzo[d][1,3]dioxol-5-yloxy)naphthalene-1,4-dione] | 970 nM | 582 nM | 78% | 59% | 43% | 27% | 17% | 71(±2) | 53(±3) | 39(±3) | 25(±5) | 16(±3) | 57% | 43% | 28% | 18% | 46(±4) | 35(±3) | 23(±3) | 15(±3) | viability at 0.0025 µM (PC3 [4]; [6]): 77%; 3D sphere count of PC3 (PC3 [4]; drug 0.0025 uM): 62(±4)
O=C1C=C(Oc2ccc(F)cc2)C(=O)c2c(OCCN3CCOCC3)cccc21 [Formula 80, 8-(2-morpholinoethoxy)-2-(4fluorophenoxy)naphthalene-1,4-dione] | 352 nM | 482 nM | 75% | 53% | 39% | 23% | 15% | 68(±4) | 48(±3) | 35(±4) | 21(±3) | 14(±4) | 56% | 37% | 27% | 17% | 45(±3) | 30(±2) | 22(±4) | 14(±3) | viability at 0.0025 µM (PC3 [4]; [6]): 73%; 3D sphere count of PC3 (PC3 [4]; drug 0.0025 uM): 59(±3)
COc1ccc(NC2=CC(=O)c3c(OCCN4CCOCC4)cccc3C2=O)cc1 [Formula 37, 5-(2-morpholinoethoxy)-2-(4-methoxyphenylamino) naphthalene-1,4-dione] | 4610 nM | 4440 nM |  | 82% | 66% | 56% | 39% |  | 82(±4) | 66(±5) | 56(±4) | 39(±3) | 89% | 69% | 56% | 37% | 89(±3) | 69(±3) | 56(±4) | 37(±4) | viability at 250 µM (MDAMB231 [3]; [5]): 23%; 3D sphere count of MDAMB231 (MDAMB231 [3]; drug 250 uM): 23(±3); viability at 250 µM (PC3 [4]; [6]): 20%; 3D sphere count of PC3 (PC3 [4]; drug 250 uM): 20(±4)
